# Measurements from paper PMC10382584, “Macrocyclization of linear molecules by deep learning to facilitate macrocyclic drug candidates discovery” (Nature Communications, 2023).
# Assays:
# Experiment in all cases: biochemical
# Set-up in all cases: DiscoveRx KINOMEscan competition binding, percent of DMSO control signal at 100 nM
# Details in all cases: read-out: Fig. 4a / Percent Control / Compound 1; percent of DMSO control, competition binding
# ERK4 = target: T1, ERK4 (Homo sapiens, UniProt P31152)
# T1 construct: gene MAPK4
# T1 sequence (P31152 whole entry): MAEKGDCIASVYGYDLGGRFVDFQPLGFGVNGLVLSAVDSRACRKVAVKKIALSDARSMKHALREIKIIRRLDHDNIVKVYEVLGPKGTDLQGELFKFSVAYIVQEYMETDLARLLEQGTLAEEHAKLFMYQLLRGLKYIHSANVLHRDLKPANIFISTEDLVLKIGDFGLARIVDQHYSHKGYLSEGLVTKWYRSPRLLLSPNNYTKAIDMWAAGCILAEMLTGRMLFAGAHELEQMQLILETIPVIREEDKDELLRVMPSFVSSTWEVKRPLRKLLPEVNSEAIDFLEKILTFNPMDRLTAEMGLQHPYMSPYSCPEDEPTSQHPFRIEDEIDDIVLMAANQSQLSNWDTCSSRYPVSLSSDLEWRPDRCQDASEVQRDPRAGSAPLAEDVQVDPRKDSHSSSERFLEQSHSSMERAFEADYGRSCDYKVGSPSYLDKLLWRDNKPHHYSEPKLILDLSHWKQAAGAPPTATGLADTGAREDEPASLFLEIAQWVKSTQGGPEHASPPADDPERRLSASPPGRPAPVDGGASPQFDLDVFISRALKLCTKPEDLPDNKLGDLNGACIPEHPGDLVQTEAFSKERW
# HIPK3 = HIPK3 (Homo sapiens, UniProt Q9H422)
# NEK9 = NEK9 (Homo sapiens, UniProt Q8TD19)
# PRKCI = PRKCI (Homo sapiens, UniProt P41743)
# BTK = BTK (Homo sapiens, UniProt Q06187)
# PAK3 = PAK3 (Homo sapiens, UniProt O75914)
# MINK = target: T2, MINK (Homo sapiens, UniProt Q8N4C8)
# T2 construct: gene MINK1
# T2 sequence (Q8N4C8 whole entry): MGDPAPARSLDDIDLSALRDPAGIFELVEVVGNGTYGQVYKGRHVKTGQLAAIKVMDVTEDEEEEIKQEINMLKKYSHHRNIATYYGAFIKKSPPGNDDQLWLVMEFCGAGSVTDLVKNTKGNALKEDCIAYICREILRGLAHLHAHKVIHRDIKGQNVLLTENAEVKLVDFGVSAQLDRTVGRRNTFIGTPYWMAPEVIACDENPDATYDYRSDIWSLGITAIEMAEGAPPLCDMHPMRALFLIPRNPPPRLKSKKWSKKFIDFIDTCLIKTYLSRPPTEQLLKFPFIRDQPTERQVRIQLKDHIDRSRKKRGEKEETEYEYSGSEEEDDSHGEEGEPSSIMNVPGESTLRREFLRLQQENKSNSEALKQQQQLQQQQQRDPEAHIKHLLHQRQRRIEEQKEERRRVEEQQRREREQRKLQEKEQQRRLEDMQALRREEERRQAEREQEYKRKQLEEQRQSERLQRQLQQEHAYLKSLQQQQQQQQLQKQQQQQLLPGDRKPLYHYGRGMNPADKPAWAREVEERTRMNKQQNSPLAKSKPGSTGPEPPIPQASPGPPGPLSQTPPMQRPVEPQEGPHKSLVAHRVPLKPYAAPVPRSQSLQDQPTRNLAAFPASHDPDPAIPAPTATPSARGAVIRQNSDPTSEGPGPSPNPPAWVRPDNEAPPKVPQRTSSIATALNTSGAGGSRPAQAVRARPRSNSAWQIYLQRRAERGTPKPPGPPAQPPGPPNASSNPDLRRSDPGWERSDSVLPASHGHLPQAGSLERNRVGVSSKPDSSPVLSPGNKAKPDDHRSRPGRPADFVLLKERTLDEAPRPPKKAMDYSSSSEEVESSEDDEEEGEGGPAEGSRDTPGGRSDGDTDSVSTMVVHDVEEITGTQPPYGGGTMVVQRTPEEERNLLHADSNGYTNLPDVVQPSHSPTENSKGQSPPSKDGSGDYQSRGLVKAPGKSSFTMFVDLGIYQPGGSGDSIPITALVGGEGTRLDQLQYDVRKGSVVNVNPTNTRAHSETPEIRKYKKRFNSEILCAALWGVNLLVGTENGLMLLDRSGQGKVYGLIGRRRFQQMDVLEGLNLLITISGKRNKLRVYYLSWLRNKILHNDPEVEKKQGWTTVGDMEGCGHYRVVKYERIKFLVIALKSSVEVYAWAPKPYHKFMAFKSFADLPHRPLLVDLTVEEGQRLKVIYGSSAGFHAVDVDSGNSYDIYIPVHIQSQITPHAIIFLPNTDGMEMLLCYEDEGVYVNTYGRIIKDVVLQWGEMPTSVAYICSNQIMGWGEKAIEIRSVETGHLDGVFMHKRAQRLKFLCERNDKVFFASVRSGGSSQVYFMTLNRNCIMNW
# EGFR(G719S) = EGFR(G719S) (Homo sapiens, UniProt P00533, G719S)
# CDK4 = CDK4 (Homo sapiens, UniProt P11802)
# TYRO3 = TYRO3 (Homo sapiens, UniProt Q06418)
# ERK2 = target: T3, ERK2 (Homo sapiens, UniProt P28482)
# T3 construct: gene MAPK1
# PIP5K2C = target: T4, PIP5K2C (Homo sapiens, UniProt Q8TBX8)
# T4 construct: gene PIP4K2C
# CSF1R = CSF1R (Homo sapiens, UniProt P07333)
# PDGFRB = PDGFRB (Homo sapiens, UniProt P09619)
# Chain of PDGFRB (P09619 whole entry): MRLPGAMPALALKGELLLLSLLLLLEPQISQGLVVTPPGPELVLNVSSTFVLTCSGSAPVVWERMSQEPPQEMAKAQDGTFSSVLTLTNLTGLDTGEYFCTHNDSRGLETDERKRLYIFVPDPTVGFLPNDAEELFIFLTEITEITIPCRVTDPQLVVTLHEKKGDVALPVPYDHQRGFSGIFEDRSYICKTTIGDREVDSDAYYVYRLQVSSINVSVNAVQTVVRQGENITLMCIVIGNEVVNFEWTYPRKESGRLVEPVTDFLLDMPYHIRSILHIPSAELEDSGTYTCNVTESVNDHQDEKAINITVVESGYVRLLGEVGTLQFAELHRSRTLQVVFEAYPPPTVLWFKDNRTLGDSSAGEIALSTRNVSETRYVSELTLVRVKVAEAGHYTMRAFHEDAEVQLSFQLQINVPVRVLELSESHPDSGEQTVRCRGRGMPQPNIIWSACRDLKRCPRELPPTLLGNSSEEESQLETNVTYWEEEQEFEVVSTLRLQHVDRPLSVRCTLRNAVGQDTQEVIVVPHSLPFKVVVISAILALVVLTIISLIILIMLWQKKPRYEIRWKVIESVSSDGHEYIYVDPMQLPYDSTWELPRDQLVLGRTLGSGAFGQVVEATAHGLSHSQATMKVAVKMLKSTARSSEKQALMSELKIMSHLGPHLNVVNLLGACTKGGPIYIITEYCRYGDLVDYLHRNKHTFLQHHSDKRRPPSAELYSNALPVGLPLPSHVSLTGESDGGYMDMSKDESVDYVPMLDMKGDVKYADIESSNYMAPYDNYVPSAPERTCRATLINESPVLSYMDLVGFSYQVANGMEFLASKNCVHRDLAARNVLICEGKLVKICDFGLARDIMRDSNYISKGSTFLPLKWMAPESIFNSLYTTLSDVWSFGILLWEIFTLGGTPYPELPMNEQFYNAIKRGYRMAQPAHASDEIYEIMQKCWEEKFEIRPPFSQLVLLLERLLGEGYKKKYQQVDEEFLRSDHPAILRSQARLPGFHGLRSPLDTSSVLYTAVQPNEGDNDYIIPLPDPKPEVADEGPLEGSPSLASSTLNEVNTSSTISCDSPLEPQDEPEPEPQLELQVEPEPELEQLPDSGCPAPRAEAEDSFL
# KIT-autoinhibited = KIT-autoinhibited (Homo sapiens, UniProt P10721)
# Chain of KIT-autoinhibited (P10721 whole entry): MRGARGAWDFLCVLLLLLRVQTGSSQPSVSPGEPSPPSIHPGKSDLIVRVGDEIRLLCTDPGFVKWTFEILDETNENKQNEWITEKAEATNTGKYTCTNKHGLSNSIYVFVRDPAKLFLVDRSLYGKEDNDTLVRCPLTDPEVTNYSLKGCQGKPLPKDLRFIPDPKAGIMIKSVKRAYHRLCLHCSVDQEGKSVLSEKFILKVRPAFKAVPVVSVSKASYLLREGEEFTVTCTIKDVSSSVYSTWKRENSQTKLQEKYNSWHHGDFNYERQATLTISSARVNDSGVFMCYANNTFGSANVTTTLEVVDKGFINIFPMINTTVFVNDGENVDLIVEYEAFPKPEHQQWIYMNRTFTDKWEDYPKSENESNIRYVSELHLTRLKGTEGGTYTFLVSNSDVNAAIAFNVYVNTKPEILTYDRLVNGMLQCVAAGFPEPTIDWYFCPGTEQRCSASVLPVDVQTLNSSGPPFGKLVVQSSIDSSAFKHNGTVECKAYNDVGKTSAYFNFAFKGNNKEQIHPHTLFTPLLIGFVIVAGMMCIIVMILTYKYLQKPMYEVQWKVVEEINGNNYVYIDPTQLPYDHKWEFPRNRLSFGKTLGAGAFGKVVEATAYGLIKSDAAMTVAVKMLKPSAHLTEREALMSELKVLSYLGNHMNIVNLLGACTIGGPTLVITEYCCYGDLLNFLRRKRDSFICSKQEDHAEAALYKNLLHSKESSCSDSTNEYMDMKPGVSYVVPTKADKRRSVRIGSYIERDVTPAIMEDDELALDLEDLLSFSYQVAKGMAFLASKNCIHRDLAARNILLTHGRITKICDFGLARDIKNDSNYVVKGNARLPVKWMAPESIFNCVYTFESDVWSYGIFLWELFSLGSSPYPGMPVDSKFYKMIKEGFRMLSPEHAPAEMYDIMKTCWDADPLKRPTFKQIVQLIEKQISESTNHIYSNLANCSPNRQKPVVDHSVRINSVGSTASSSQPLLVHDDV
# KIT(V559D) = KIT(V559D) (Homo sapiens, UniProt P10721, V559D)
# Chain of KIT(V559D) (P10721 whole entry V559D): as the sequence (P10721 whole entry) above, with V559D counted along it
# RET(M918T) = RET(M918T) (Homo sapiens, UniProt P07949, M918T)
# PRKCH = PRKCH (Homo sapiens, UniProt P24723)
# RIOK3 = RIOK3 (Homo sapiens, UniProt O14730)
# TNNI3K = TNNI3K (Homo sapiens, UniProt Q59H18)
# HIPK2 = HIPK2 (Homo sapiens, UniProt Q9H2X6)
# ROS1 = ROS1 (Homo sapiens, UniProt P08922)
# SRPK2 = SRPK2 (Homo sapiens, UniProt P78362)
# TLK1 = TLK1 (Homo sapiens, UniProt Q9UKI8)
# Chain of TLK1 (Q9UKI8 whole entry): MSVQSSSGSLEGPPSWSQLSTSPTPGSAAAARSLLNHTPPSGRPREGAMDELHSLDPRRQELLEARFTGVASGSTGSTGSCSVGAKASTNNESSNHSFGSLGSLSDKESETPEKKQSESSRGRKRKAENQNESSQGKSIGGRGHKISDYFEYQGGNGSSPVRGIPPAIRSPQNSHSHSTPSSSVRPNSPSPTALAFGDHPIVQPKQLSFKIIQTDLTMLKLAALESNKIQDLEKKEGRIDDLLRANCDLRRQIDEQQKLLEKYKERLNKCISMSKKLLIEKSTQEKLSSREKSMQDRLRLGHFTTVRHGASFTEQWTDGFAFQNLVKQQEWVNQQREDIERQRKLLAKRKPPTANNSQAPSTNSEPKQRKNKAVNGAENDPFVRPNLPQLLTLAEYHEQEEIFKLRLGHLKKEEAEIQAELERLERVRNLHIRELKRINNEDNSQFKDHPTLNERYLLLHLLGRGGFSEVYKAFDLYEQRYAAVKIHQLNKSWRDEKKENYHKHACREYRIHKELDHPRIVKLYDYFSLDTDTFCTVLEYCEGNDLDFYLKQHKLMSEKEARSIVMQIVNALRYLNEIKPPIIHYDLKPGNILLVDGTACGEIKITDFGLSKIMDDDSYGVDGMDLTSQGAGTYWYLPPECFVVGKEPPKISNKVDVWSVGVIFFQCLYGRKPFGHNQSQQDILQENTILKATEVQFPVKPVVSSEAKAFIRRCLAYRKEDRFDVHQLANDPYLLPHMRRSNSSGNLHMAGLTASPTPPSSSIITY
# TAOK3 = TAOK3 (Homo sapiens, UniProt Q9H2K8)
# 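Further: KINOMEscan kinase panel binding assay, signal normalized between DMSO as 100% and a positive control compound as 0%.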
smiles,measurement,setting,value
Cc1cnc2nc1Nc1cccc(c1)COCc1cc(ccc1OCCN1CCCC1)N2 [Compound 1],remaining binding at 0.1 µM,ERK4,81%
same,remaining binding at 0.1 µM,HIPK3,87%
same,remaining binding at 0.1 µM,NEK9,83%
same,remaining binding at 0.1 µM,PRKCI,80%
same,remaining binding at 0.1 µM,BTK,86%
same,remaining binding at 0.1 µM,PAK3,100%
same,remaining binding at 0.1 µM,MINK,82%
same,remaining binding at 0.1 µM,EGFR(G719S),91%
same,remaining binding at 0.1 µM,CDK4,96%
same,remaining binding at 0.1 µM,TYRO3,55%
same,remaining binding at 0.1 µM,ERK2,100%
same,remaining binding at 0.1 µM,PIP5K2C,76%
same,remaining binding at 0.1 µM,CSF1R,62%
same,remaining binding at 0.1 µM,PDGFRB,51%
same,remaining binding at 0.1 µM,KIT-autoinhibited,86%
same,remaining binding at 0.1 µM,KIT(V559D),51%
same,remaining binding at 0.1 µM,RET(M918T),96%
same,remaining binding at 0.1 µM,PRKCH,91%
same,remaining binding at 0.1 µM,RIOK3,79%
same,remaining binding at 0.1 µM,TNNI3K,100%
same,remaining binding at 0.1 µM,HIPK2,100%
same,remaining binding at 0.1 µM,ROS1,76%
same,remaining binding at 0.1 µM,SRPK2,100%
same,remaining binding at 0.1 µM,TLK1,100%
same,remaining binding at 0.1 µM,TAOK3,56%
